Article PMC6478789, “A chemical toolbox for the study of bromodomains and epigenetic signaling” (Nature Communications, 2019)
Where two headings read alike, the source gives them in different places.

Tests used:
CBP = molecular target: T1, CBP (Homo sapiens, UniProt Q92793); details: ITC data, cited from earlier work
T1 construct: Recombinant protein domains (bromodomain or kinases) at a concentration of 2 μM

BRPF2 = details: ITC data, cited from earlier work
ATAD2A = molecular target: T2, ATAD2A (Homo sapiens, UniProt Q6PL18); set-up: purchased; method as in ref 20 (suppl.); details: BROMOscan; ref 20 (suppl.); cited from earlier work
T2 sequence (Q6PL18 980-1092 limits assumed): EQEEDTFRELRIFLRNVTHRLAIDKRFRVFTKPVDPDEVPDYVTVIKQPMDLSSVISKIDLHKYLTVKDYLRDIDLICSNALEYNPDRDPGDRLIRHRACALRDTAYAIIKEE

TNBC cells = experiment: Colony formation assay; type: cell-based, human; details: 3 µM, 2 weeks
Experimental: Colony formation studies were performed with TNBC cells on treatment with DMSO or the indicated concentrations of BAY-876. Cells were seeded into 6-well plates at 200 cells per well and left to adhere overnight. Then, cells were treated with DMSO or 3 µM BAY-876. After 2 weeks, the cells were stained with crystal violet and imaged.

three TNBC lines = experiment: Combinatorial screen of BRD inhibitors with or without BAY-876 (confluency); type: cell-based, human
Experimental: Fig. 6 BRD inhibitors leverage metabolic adaptations induced by glucose transporter I (GLUT1) inhibition in TNBC. a BRD inhibitor screening across ten TNBC cell lines. Cells were treated with indicated BRD inhibitors at 3 μM for 7 days. Confluency was measured using an IncuCyte ZOOM live cell imaging device. Data shown are mean ± s.d. of n = 4 independent cell culture grown and treated cells. A two-sided Student’s t test was used to derive the p-values. b SLC2A1 gene expression in the The Cancer Genome Atlas (TCGA) breast datasets. The cohorts were divided into TNBCs (red) and non-TNBCs (blue) according to PAM50 classification. Gene expression is reported as median-centered expression log2 values. The number of patients (n) per group is indicated. P-values were determined using a Wilcoxon's rank-sum test. c Glucose uptake in MDA-MB-436 cells in response to BAY-876 treatment relative to vehicle. MDA-MB-436 cells were treated with dimethyl sulfoxide (DMSO) or 3 µM BAY-876 for 5 days. Graph indicates mean, error bars denote s.d. from three independent assays and p-value was computed using the Benjamini-Hochberg t test; ***p < 0.001. d Effects of BAY-876 treatment on the intracellular acetyl-CoA level. Graph indicates mean, error bars denote s.d. from three independent assays and p-value was computed using the Benjamini-Hochberg t test; ***p < 0.001. e Effects of BAY-876 treatment on intracellular NAD^+/NADH level. Graph indicates the mean, error bars denote s.d. from three independent assays and p-value computed using the Benjamini-Hochberg t test; **p < 0.01. f Immunoblot analysis of H3 and H4 acetylation in MDA-MB-436 cells before and after BAY-876 treatment. P-value computed using the Benjamini-Hochberg t test; ***p < 0.001. g Cell growth effects of BAY-876 treatment on three representative cell lines. n.s. not significant. h Combinatorial screening of BRD inhibitors with or without 3 μM BAY-876 across ten TNBC cell lines. Cell confluency was obtained from the endpoint Incucyte scanning. (Left) Heatmap of the combinatorial screening results; (Right) Cell confluency after treatment with three potential BRDi candidates at 3 μM in the presence or absence of 3 μM BAY-876 in three representative cell lines. Graph indicates mean, error bars denote s.d. from three independent assays and p-values were computed using the Benjamini-Hochberg t test; **p < 0.01; ***p < 0.001. Raw data images are available in Supplementary Fig. 4
TNBC cell lines were seeded in sterile, transparent 384-well plates at 500 cells per well in 50 µl media. Chemical probes were delivered in dimethyl sulfoxide (DMSO). Cell confluency at 7 days was evaluated using an Incucyte ZOOM live cell imaging device (Essen Bioscence) and analyzed with the Incucyte ZOOM (2016A) software based on phase contrast image.

MDA-MB436 cells = experiment: Cell apoptosis assay (caspase-3/7); type: cell-based, human; details: 3 μM OF-1 + 3 μM BAY-876, 5 days, versus either alone
Experimental: Cells were seeded into 96-well plates at 3000 cells per well and left to adhere overnight. Then, cells were treated with DMSO or BAY-876 for 5 days, followed by addition of Incucyte TM Caspase- 3/7 reagents. Imaging of plates was carried out in an Incucyte Zoom instrument with a ×10 objective using the standard scan type. Data were analyzed using the integrated software provided with the instrument.
Wu et al., Supplementary figures and tables 5 indicate mean and error bars denote standard deviation from eight wells (from two independent assays). b) A representative immunoblot of histone acetylation level across ten TNBC lines. c) Plot of ECAR and histone acetylation across ten TNBC lines. […] Cell apoptotic activity was quantified by the fluorescent caspase 3/7 active objects. […]
Graph indicate mean and error bars denote standard deviation from four independent assay s. p value computed using a two - stage step -up Benjamini t test j) Immunoblot based quantification of H3K14ac abundance using total H3 as a control in MDA-MB-436 cells following control or 3 μM of the indicated chemical probes during a 5-day treatment. Graph indicate mean and error bars denote standard deviation from three independent assays. p value computed using a two-stage step-up Benjamini t test; **p<0.01; *** p<0.001. k) Immunoblot based quantification of H3K14ac abundance using total […]

T1 sequence (Q92793 1085-1192 limits assumed): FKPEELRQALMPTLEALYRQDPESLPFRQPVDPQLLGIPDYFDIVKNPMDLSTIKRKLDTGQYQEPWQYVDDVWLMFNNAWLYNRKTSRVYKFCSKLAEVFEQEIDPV

In the case of Cc1cc2c(cc1N1C(=O)c3cccc4c(CCCO)ccc(c34)C1=O)n(C)c(=O)n2C [BAY-299], the Kd (CBP; ref 13 (suppl.), read-out: KD (nM), off target CBP) is given as 1390 nM and the Kd (BRPF2; ref 13 (suppl.)) is given as 44 nM.

In the case of COc1cc(Cl)c(C(=O)N[C@@H](CN[C@H]2CC[C@@H](N)CC2)Cc2ccc(C#N)cc2)cc1-c1ccc(CN[C@H](C)c2ccc(C)cc2)o1 [BAY-850], the Kd (ATAD2A) is listed as 120 nM.

With Cc1c(NC(=O)c2cc(C(N)=O)nc3cc(F)ccc23)c(C(F)(F)F)nn1Cc1ccc(C#N)cc1 [BAY-876] the “cell growth (colony formation)” value (TNBC cells) was “no overt effect on cell growth” and the “cell growth, treatment alone” value (three TNBC lines; 3 μM alone) was “no effect”.

In the case of CCC(=O)N1CCOc2c(cc(-c3ccc(OC)c(OC)c3)cc2OCC2CCCN(C)C2)C1 (stereo not shown) [I-CBP112], the Kd (CBP; ref 9 (suppl.), read-out: KD (nM), CBP) is given as 151 nM.

In the case of COc1cc2c(cc1NS(=O)(=O)c1ccc(Br)cc1C)n(C)c(=O)n2C [OF-1], the “apoptosis markers caspase-3/7” value (MDA-MB436 cells) was “induced at a significantly higher level”, the “combination effect with BAY-876 across the three cell lines” value (three TNBC lines; 3 μM probe + 3 μM BAY-876) was “strong synergistic effect across all three cell lines” and the “viability in combination with BAY-876” value (three TNBC lines; 3 μM probe + 3 μM BAY-876) was “significant decrease in viability”. For the same molecule, the Kd (BRPF2; ref 11 (suppl.)) was 505 nM.
